Results: the METLIN SMRT retention time set (Domingo-Almenara et al. 2019)

Assay: gradient 5% acetonitrile 3 min, to 50% in 2 min, to 85% in 15 min, held 3 min, 100 µL/min
Conditions: column: Zorbax Extend-C18 2.1 x 50 mm; eluents: water / acetonitrile, 0.1% formic acid
Outline: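 Pure standards were analyzed in mixtures of ~100 molecules using HPLC coupled to a quadrupole time-of-flight mass spectrometer, in both positive and negative ionization mode. Separation used a Zorbax Extend-C18 column (2.1 × 50 mm, 1.8 μm) at 100 μL/min, with water and acetonitrile each containing 0.1% formic acid. Dead and dwell volumes were 40 μL and 900 μL, and data were collected over 3 months. Retention time was read from computationally picked adduct peaks, each inspected manually.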

Cn1cc(C(=O)Nc2ccc(C(F)(F)F)cc2)c2cccnc21
RP-LC retention time: 909 s

COc1ccc(N2CCN(C(=O)C3CCCN(S(=O)(=O)c4cn(C(C)C)cn4)C3)CC2)cc1 (stereo unspecified)
RP-LC retention time: 723 s

Fc1cc(F)cc(Cn2cccc2-c2nc(-c3ccncc3)no2)c1
RP-LC retention time: 1110 s

Cc1cc(=O)n(CC(=O)Nc2ccc(Cl)cc2)c(N2CCC(C)CC2)n1
RP-LC retention time: 758 s

Cc1ccc(-c2[nH]c3[nH]c(=O)[nH]c(=O)c3c2C2C(=O)N(C)c3ccccc32)cc1 (stereo unspecified)
RP-LC retention time: 696 s

CCOc1ccc(C(=O)N2CCC[C@@H]2C(=O)NCCc2csc(C)n2)cc1
RP-LC retention time: 846 s

CC1Cn2cc(C(=O)NCCCN3CCOCC3)c(=O)c3c(Cl)ccc(c32)O1 (stereo unspecified)
RP-LC retention time: 624 s

COCCC1CCN(C(=O)c2nn(C)c3ccccc23)CC1
RP-LC retention time: 771 s

Cc1ccc(N2CC(c3nc(-c4ccc(CNC(=O)C5CC5)s4)no3)CC2=O)cc1C (stereo unspecified)
RP-LC retention time: 874 s

COc1ccc(NC(=O)c2c(C)oc3nc(C)nc(N4CCCC4)c23)cc1
RP-LC retention time: 704 s

CC(C)CNC(=O)CCc1nc2ccccc2n(CC(=O)Nc2ccc(C(C)C)cc2)c1=O
RP-LC retention time: 949 s

Cc1cccc(-c2nc(Cn3nnc(-c4nc(-c5cccs5)no4)c3C)c(C)o2)c1
RP-LC retention time: 1220 s

CCc1nc2cc(N3CCC(C(=O)NCc4ccccn4)CC3)cnc2nc1CC
RP-LC retention time: 601 s

CCOC(=O)CNC(=O)NCc1cccn1Cc1cccc(F)c1
RP-LC retention time: 810 s

Cc1nc(-c2csc(S(=O)(=O)N3CCCC(C(=O)Nc4ccc(F)cc4C)C3)c2)no1 (stereo unspecified)
RP-LC retention time: 892 s

CCOc1ccc(C2C(=O)N(C3CCCCCC3)CC(=O)N2Cc2ccco2)cc1OC (stereo unspecified)
RP-LC retention time: 963 s

Cc1noc(-c2ccnc(-n3ncc(C(=O)NCCc4c[nH]c5ccccc45)c3C)c2)n1
RP-LC retention time: 903 s

O=C1c2cccc([N+](=O)[O-])c2C(=O)N1c1nc(-c2ccccc2)cs1
RP-LC retention time: 958 s

CCCNc1cc(N2CCC(CCC(=O)NCC(C)C)CC2)ncn1
RP-LC retention time: 642 s

CSc1ccc(CNC(=O)Cc2cn(C)c3ncccc23)cc1
RP-LC retention time: 686 s

CCCn1cnc2cc(-c3noc(C(C)NC(=O)c4ccco4)n3)ccc21 (stereo unspecified)
RP-LC retention time: 629 s

COc1ccccc1N1CCN(c2cc(SCC(=O)Nc3cccc(Cl)c3F)ncn2)CC1
RP-LC retention time: 1270 s

CC1CCCCN1CCNC(=O)CCCn1c(=O)c2cccn2c2ccc(Br)cc21 (stereo unspecified)
RP-LC retention time: 673 s

CCn1ccc2c(cc(C(=O)Nc3cc(OC)ccc3OC)n2C)c1=O
RP-LC retention time: 746 s

COc1cc(OC)c(NC(=O)N2CCCC2c2nncn2C2CCCC2)cc1Cl (stereo unspecified)
RP-LC retention time: 668 s

COc1cc(OC)cc(-c2nc(-c3cn(-c4ccc(F)cc4)nn3)no2)c1
RP-LC retention time: 809 s

CN1c2cc(F)ccc2C(=O)NC12CCN(C(=O)c1ccc(F)c(F)c1)CC2
RP-LC retention time: 776 s

CCN(CC)CCNC(=O)C1CCN(c2nc3ccccc3n3cccc23)CC1
RP-LC retention time: 579 s

Cc1csc(NC(=O)CN2CCC3(CC2)NC(=O)N(Cc2ccc(Cl)cc2)C3=O)n1
RP-LC retention time: 949 s

COc1ccc(C2C(C(=O)NCc3ccco3)c3cc(OC)c(OC)cc3C(=O)N2C)cc1 (stereo unspecified)
RP-LC retention time: 758 s

COc1cccc(CN2CC[C@@H]3CN(S(C)(=O)=O)[C@@H]3C2)n1
RP-LC retention time: 553 s

CCc1nn2c(CNS(=O)(=O)c3ccc(C)cc3C)c(-c3ccccc3)nc2s1
RP-LC retention time: 1020 s

CCc1c(C(=O)O)nnn1-c1ccc(C)c(F)c1
RP-LC retention time: 744 s

CCCn1nnc(NCc2ccc(-c3ccc(Cl)cc3Cl)o2)n1
RP-LC retention time: 1200 s

COc1ccc2cc(C(=O)Nc3ccc(F)cc3)[nH]c2c1
RP-LC retention time: 910 s

O=C(NCc1ccco1)C1CCN(S(=O)(=O)c2cc(-c3noc(C4CCC4)n3)cs2)CC1
RP-LC retention time: 917 s
